Reference: patent publication US20110301110A1, “TRIM33 (TIF1gamma) AS A NEW DIAGNOSTIC MARKER OF CHRONIC MYELOMONOCYTIC LEUKEMIA (CMML)” (priority 2010, published 2011)

Legend:
HCT116 = HCT116 human tumor cell line; cited from earlier work
NALM-6 = NALM-6 human tumor cell line; cited from earlier work
[1] = tested on: TIF1γ expression in sorted PB monocytes (CD14+ cells); assay: TIF1γ expression (RQ-PCR, immuno-blotting) in sorted PB monocytes (CD14+ cells) of a CMML patient before and after treatment with decitabine; type: in vivo, human; conditions: one CMML patient with very low Tif1γ level, after 5 cycles of decitabine; sorted PB monocytes (FIG. 7A)
Experimental: Protein extracts were prepared from purified human monocytes (CD14+ cells) for SDS-PAGE and immuno-blotting with anti-TIF1γ antibody. Equivalent loading of lanes was controlled by the use of an anti-HSC70 antibody.

control Lin- cells = control Lin- cells cultured for 10 days in the presence or absence of TGF-β or TGF-β inhibitor, formation of myeloid cells; type: cell-based, mouse; conditions: 10 days culture, compared to untreated cultures
Experimental: (§1) To answer this question, control and Tif1γ-deficient Lin^− cells were cultured for 10 days in the presence or absence of TGF-β. Cells were also treated with TGF-β inhibitor.

[2] = tested on: Tif1γ-deficient Lin- cells; assay: Tif1γ-deficient Lin- cells cultured for 10 days in the presence or absence of TGF-β, myelopoiesis; type: cell-based, mouse; conditions: 10 days culture
Experimental: as §1

## O=C(O)C(Cc1c[nH]c2ccccc12)N1C(=O)c2ccccc2C1=O (centres unmarked) [RG 108, N-phthalyl-1-tryptophan]
HCT116
  proliferation: inhibits
NALM-6
  proliferation: inhibits

## Nc1ncn([C@H]2C[C@H](O)[C@@H](CO)O2)c(=O)n1 [decitabine, 4-amino-1-(2-deoxy-b-D-erythro-pentofuranosyl)-1,3,5-triazin-2(1 H)-one]
[1]
  TIF1γ expression, increase compared to the level measured before treatment: 8 fold

## TGF-β
Control Lin- cells
  formation of myeloid cells: limited formation of myeloid cells
[2]
  myelopoiesis: did not inhibit myelopoiesis
